In publication PMC8793064, “Bioassay Guided Fractionation of Senna singueana and Its Potential for Development of Poultry Phytogenic Feed Additives” (Frontiers in Veterinary Science, 2022):
Converted amounts (≈) assume the structure as drawn. Marks after values point to notes of the source that are not given here.

Assays:
in vitro = conditions: monkey
Protocol: (§5) The cytotoxic effect of the fractions and the isolated compounds was determined using an in vitro assay with Vero monkey kidney cells ([15]). The growth medium used was Minimal Essential Medium (MEM, Whitehead Scientific) supplemented with 0.1% gentamicin (Virbac) and 5% foetal calf serum (Highveld Biological). The cells were seeded at a density of 10 000 cells/per well in 96-well-microtitre plates. The plates were incubated at 37°C in a 5% CO2 incubator in a humidified environment for 24 h to allow cell attachment.
(§6) After incubation, the medium was aspirated and replaced with fresh MEM. The fractions/compounds (100 μl) of varying concentrations were added to the wells containing cells. The anticancer compound doxorubicin (Pfizer Laboratories) was used as a positive control. A suitable blank control with equivalent concentrations of fresh medium was also included and the plates were further incubated for 48 h in a CO2 incubator. Subsequently, the medium in each well was aspirated from the cells, which were washed with phosphate-buffered saline (PBS) and fresh medium was then added to each well. A 30 μl aliquot of MTT (5 mg/ml in PBS) was added to each well and the plates were incubated at 37°C for 4 h. The medium was then aspirated from wells and 50 μl DMSO was added to each well to solubilise the formed formazan crystals. The absorbance was measured on a BioTek Synergy microtitre plate reader at 570 nm. Cell growth inhibition for each extract was expressed in terms of LC50 values. […] The cytotoxicity assay was repeated thrice.

DPPH free radical assay = conditions: for DPPH IC50: 30 min, 516 nm; for DPPH IC50 obtained after log transformation of data: value in brackets, data not normally distributed
Protocol: The antioxidant activities of the samples were measured in terms of radical scavenging ability using the stable radical (DPPH) method of Brand-Williams et al. ([12]) with some modifications. Methanol solutions (40 μl) of the samples and positive controls (Trolox and ascorbic acid) at various concentrations (0.1–100 μg/ml) were prepared by serial dilution in a 96 well-microtitre plate. One hundred and sixty (160) μl of DPPH in methanol adjusted to an absorbance between 0.9 and 1.0 was added and the plates were incubated in the dark at room temperature (25°C) for 30 min. Absorbance was measured against a blank with a microtitre plate reader (Epoch, BioTek, United States) at 516 nm. The DPPH scavenging effect was determined using the following formula:
(1) DPPH Scavenging Effect(%)=[(A1-A2/A1)] × 100
Where A1 is the absorbance of the control reaction and A2 is the absorbance in the presence of the sample. Trolox and ascorbic acid were used as controls. The experiments were conducted twice.

[1] = ABTS free-radical-scavenging assay; conditions: for ABTS IC50: 6 min, 734 nm; for ABTS IC50 obtained after log transformation of data: value in brackets, data not normally distributed
Protocol: The free radical-scavenging activity as a measure of hydrogen donating capacity was determined by using the ABTS cation decolourization method of Re et al. ([16]) with some modifications. ABTS radical solution (7 μM) was prepared by dissolving 1.32 × 10^4 μg of ABTS in 10 ml of 50% methanolic solution and 7.68 × 10^4 μg of potassium persulphate ([…]) in 10 ml of distilled water. The two solutions were mixed together and made up to 200 ml with 50% methanolic solution, and kept in the dark at room temperature, 25°C for 12 h. Prior to running the assay, the ABTS radical solution was diluted with 50% methanolic solution to an absorbance between 0.7 and 0.8 at 734 nm. The samples were serially diluted (40 μl) (0.1–100 μg/ml) in 96 well-microtitre plates and 160 μl of ABTS radical solution was added to each well. The absorbance readings were taken after exactly 6 min of reaction and blanks were prepared using the respective samples without ABTS radical. The scavenging effect was calculated using the following formula:
(2) ABTS Scavenging Effect(%)=[(A1-A2/A1)] × 100
The IC50 values were calculated from a graph plotted as inhibition percentage against the concentration. A Trolox standard curve was drawn by plotting percentage inhibition of the ABTS+ radical against the concentration of Trolox. Data from the test samples were analysed in a similar manner.

[2] = tested on: Salmonella Enteritidis (ATCC 13076); assay: MIC by serial two-fold microdilution; assay type: cell-based, Salmonella enterica subsp. enterica var. Enteritidis; conditions: Salmonella enterica, 24 h
Protocol: (§1) The four bacterial cultures were prepared by inoculating a single colony from an agar plate into 10 ml of sterilised Mueller-Hinton (MH) broth (Merck, South Africa) and incubating at 37°C in an MRC orbital shaker (150 rpm) incubator (United Scientific, South Africa) for 18 to 20 h prior to the experiment. Following incubation, each bacterial strain was diluted in MH broth (Merck, South Africa) and the absorbance was measured at a wavelength of 560 nm using a spectrophotometer (Epoch microplate reader: BioTek, United States).
(§2) The assay was performed in microtitre plates (Lasec, South Africa) by adding 100 μl of sterile water to all wells. In the first row, 100 μl of extract, fraction or compound were added in triplicate and serially diluted two-fold to the last well, from which 100 μl were then discarded. Gentamicin (Virbac, South Africa) was used as a positive control and a sterility control containing only water was included. This was followed by addition of 100 μl of the bacterial suspension to each well (except for the sterility control). The plates were sealed with parafilm and incubated at 37°C (IncoTherm, Labotec). After 24 h, 40 μl of a 0.2 mg/ml solution of INT was added to each well and the plate further incubated for at least half an hour to ensure adequate colour development. […]

[3] = tested on: Escherichia coli (ATCC 25922); assay: MIC by serial two-fold microdilution; assay type: cell-based; conditions: ATCC25922, 24 h
Protocol: as §1
(§3) The assay was performed in microtitre plates (Lasec, South Africa) by adding 100 μl of sterile water to all wells. In the first row, 100 μl of extract, fraction or compound were added in triplicate and serially diluted two-fold to the last well, from which 100 μl were then discarded. Gentamicin (Virbac, South Africa) was used as a positive control and a sterility control containing only water was included. This was followed by addition of 100 μl of the bacterial suspension to each well (except for the sterility control). The plates were sealed with parafilm and incubated at 37°C (IncoTherm, Labotec). After 24 h, 40 μl of a 0.2 mg/ml solution of INT was added to each well and the plate further incubated for at least half an hour to ensure adequate colour development. INT is a dehydrogenase activity detecting reagent, which is converted into an intensely coloured red-purple formazan by metabolically active micro-organisms. Inhibition of growth was indicated by a clear solution or a noticeable decrease in colour reaction. This value was taken as the MIC of the sample. The experiments were conducted twice.

[4] = tested on: Escherichia coli (clinical strain); assay: MIC by serial two-fold microdilution; assay type: cell-based; conditions: 24 h
Protocol: as §1, §3

[5] = tested on: Staphylococcus aureus (ATCC 29213); assay: MIC by serial two-fold microdilution; assay type: cell-based; conditions: ATCC29213, 24 h
Protocol: as §1, §3

[6] = Qualitative antioxidant activity, TLC sprayed with DPPH; conditions: TLC sprayed with DPPH 0.2% w/v
Protocol: TLC plates (10 × 20 cm, aluminium-backed, Merck, silica gel 60 F254) were loaded with 10 μl of the crude extract, fraction or compound (re-dissolved to 10 mg/ml) and dried before being developed in two mobile phase systems (CEF and EMW). […] A change of colour from the DPPH purple background to yellow indicated the presence of antioxidant compounds ([13]).

15-LOX = target: T1, 15-LOX (Glycine max, UniProt P08170); assay: biochemical
T1 construct: purchased Sigma Aldrich, Germany
T1 sequence (P08170 1-839): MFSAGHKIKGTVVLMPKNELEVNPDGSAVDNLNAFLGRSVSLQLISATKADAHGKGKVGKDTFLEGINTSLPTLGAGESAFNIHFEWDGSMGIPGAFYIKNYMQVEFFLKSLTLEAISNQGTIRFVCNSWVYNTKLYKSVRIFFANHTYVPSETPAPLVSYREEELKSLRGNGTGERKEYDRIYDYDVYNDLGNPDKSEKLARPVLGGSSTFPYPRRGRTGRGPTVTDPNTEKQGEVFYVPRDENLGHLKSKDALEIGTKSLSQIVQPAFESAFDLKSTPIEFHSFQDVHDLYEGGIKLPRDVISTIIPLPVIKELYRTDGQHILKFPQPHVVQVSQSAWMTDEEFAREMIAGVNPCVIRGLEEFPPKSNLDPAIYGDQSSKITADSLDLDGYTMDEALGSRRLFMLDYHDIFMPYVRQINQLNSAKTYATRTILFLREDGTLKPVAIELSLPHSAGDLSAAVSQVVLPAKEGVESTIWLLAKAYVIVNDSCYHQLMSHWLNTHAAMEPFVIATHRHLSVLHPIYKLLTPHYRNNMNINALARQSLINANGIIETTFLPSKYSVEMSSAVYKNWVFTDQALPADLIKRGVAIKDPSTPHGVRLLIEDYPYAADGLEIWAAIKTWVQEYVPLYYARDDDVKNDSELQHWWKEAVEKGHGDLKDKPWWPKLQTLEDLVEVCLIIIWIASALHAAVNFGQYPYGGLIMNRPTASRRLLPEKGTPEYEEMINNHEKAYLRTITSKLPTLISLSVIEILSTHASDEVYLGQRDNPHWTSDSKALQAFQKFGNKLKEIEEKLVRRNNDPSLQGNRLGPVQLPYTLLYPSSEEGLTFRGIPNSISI
Protocol: Lipoxygenase (LOX) activity of the samples was determined spectrophotometrically according to published methods ([17], [18]). LOX inhibition was determined spectrophotometrically based on the formation of the complex Fe3+/xylenol orange as described by Pinto et al. ([19]). Briefly, 20 μl of Tris-HCl buffer (pH 7.4) was added to all wells of the 96-well-microplates. This was followed by the addition of 20 μl of the fractions (1 or 0.5 mg/ml) in the first row of the plate which was serially diluted. […] After the serial dilution, 40 μl of the lipoxygenase enzyme (Sigma Aldrich, Germany) was added to each well and the plates were incubated at room temperature 25°C for 5 min. After incubation, 40 μl of linoleic acid (final concentration, 140 μM) prepared in Tris-HCl buffer (50 mM, pH 7.4) was added to the well (except for the blanks). The plates were incubated at 25°C for 20 min in the dark. After incubation, 100 μl of freshly prepared ferrous oxidation–xylenol orange (FOX) reagent [sulfuric acid (30 mM), xylenol orange (100 μM), iron (II) sulphate (100 μM) in methanol/water (9:1)] was added to all wells. The plates were further incubated at 25°C for 30 min in the dark, 40 μl of linoleic acid was then added to the blanks. The absorbance was measured at 560 nm. […] The experiments were conducted twice.

[7] = tested on: Escherichia coli (ATCC 25922); assay: Antibacterial TLC bioautography; assay type: cell-based; conditions: E. coli
From the text: (§4) The compounds in the crude extract and fractions, as well as the purified compounds were developed as described above but the bioautograms were sprayed with respective cultures. After development, the TLC plates were dried overnight in a stream of cold air and sprayed with an actively growing concentrated suspension of strains of either Staphylococcus aureus (ATCC 29213), Salmonella enterica subsp. enterica var. Enteritidis (S. Enteritidis ATCC 13076) or Escherichia coli (ATCC 25922). The plates were dried and incubated overnight at 37°C in closed, sterile, humidified plastic containers to allow growth of the bacteria on the plates. After incubation, the plates were sprayed with a sterile 2 mg/ml solution of p-iodonitrotetrazolium (INT, Sigma-Aldrich) salt and incubated for a further 1 h. The presence of clear zones on the chromatogram after the incubation period indicated inhibition of growth as the INT is metabolised to a coloured formazan product by the actively growing cells ([11]). The retention factors of the bands of inhibition were calculated.

[8] = tested on: Staphylococcus aureus (ATCC 29213); assay: Antibacterial TLC bioautography; assay type: cell-based; conditions: S. aureus
From the text: as §4

[9] = tested on: S. Enteritidis ATCC 13076; assay: Antibacterial TLC bioautography; assay type: cell-based, Salmonella enterica subsp. enterica var. Enteritidis
From the text: as §4

[10] = tested on: three ATCC strains and E. coli clinical strain; assay: MIC by microdilution, stated over the whole panel of strains; assay type: cell-based
Protocol: as §1, §2

Protocol for Vero monkey kidney cells: as §5, §6

Structure (SMILES) | CC50 at 48 h (in vitro) [µg/mL] | DPPH IC50 (DPPH free radical assay) | DPPH IC50 obtained after log transformation of data (DPPH free radical assay) [μg/ml] | ABTS IC50 [1] | ABTS IC50 obtained after log transformation of data [1] [μg/ml] | MIC [3] [µg/mL] | MIC [4] [µg/mL] | MIC [5] [µg/mL] | also measured
COc1cccc2c1C(=O)c1c(O)c3c(c(O)c1C2=O)C[C@@](O)(C(=O)CO)C[C@@H]3O[C@H]1C[C@H](N)[C@H](O)[C@H](C)O1 [Doxorubicin, doxorubicin, reference compound] | 9 ± 1.28 (≈ 16.6 µM) | – | – | – | – | – | – | – | –
Cc1c(C)c2c(c(C)c1O)CCC(C)(C(=O)O)O2 (stereo not drawn) [Trolox] | – | 3.19 ± 0.32 µg/mL | 4.02 | 2.21 ± 0.30 µg/mL | 2.76 | – | – | – | –
CNC(C)C1CCC(N)C(OC2C(N)CC(N)C(OC3OCC(C)(O)C(NC)C3O)C2O)O1 (stereo not drawn) [Gentamicin, reference compound] | – | – | – | – | – | 20 (≈ 41.9 µM) | 20 (≈ 41.9 µM) | 20 (≈ 41.9 µM) | MIC [2]: 20 µg/mL (≈ 41.9 µM)
O=C1O[C@H]([C@@H](O)CO)C(O)=C1O [Ascorbic acid, ascorbic acid] | – | 1.97 ± 0.21 µg/mL | 2.45 | 1.90 ± 0.07 µg/mL | 2.45 | – | – | – | –
O=c1cc(-c2ccc(O)c(O)c2)oc2cc(O)cc(O)c12 [Compound 1, luteolin] | 92.9 ± 1.7 (≈ 325 µM) | 5.92 ± 0.64^a μg/ml | – | 8.17 ± 0.80^a μg/ml | – | 156 (≈ 545 µM) | 156 (≈ 545 µM) | 625 (≈ 2180 µM) | antioxidant activity in bioautography (DPPH bleaching) [6]: antioxidant activity; IC50 (15-LOX): 25.8 µM; antibacterial activity in bioautography [7]: active; antibacterial activity in bioautography [8]: active; cytotoxicity class (Vero monkey kidney cells): moderate; antibacterial activity in bioautography [9]: active; MIC ([10]; Escherichia coli, three ATCC strains and E. coli clinical strain, read-out: MIC values over the tested strains): > 100 µg/mL; antibacterial activity class ([10]; all the tested bacterial strains): weak (values >625 μg/ml indicate weak activity)
